Literature values in patent publication US20240352228A1, “NOVEL FLAME RETARDANT” (Chemische Fabrik Budenheim KG, priority 2021, published 2024).

Conditions: general statement in description, no method given

decomposition temperature: > 350 °C
Structure (SMILES): Nc1nc(N)nc(N)n1 [melamine, Melamine]
